Experimental data as given in US20020071872A1, “Laxative composition” (priority 1999, published 2002).

Experiments:
small bowel transit = test: Small bowel (small intestinal) transit of a charcoal marker in rats; type: in vivo, rat
Procedure: A study was performed to characterize and compare the effects of bisacodyl, simethicone and combinations of bisacodyl and simethicone on small bowel transit time. Small intestinal transit time was studied as a surrogate for […] in the rat. Leng-Peschlow, E., “Effect of Sennosides A+B and Bisacodyl on rat large intestine”, Pharmacology, vol. 38 (1989), 310-318 (1989). […] The prokinetic efficacy of bisacodyl in the small intestine may differ from that observed in the large intestine by Leng-Psechlow. For the small intestinal transit model a sub-therapeutic dose of 25mg/kg bisacodyl was chosen. Rats were dosed with a suspension of powdered charcoal, which served as a non-absorbable marker. The rats were also dosed with bisacodyl USP 23 (ZetaPharm, Inc.) and simethicone supplied as […]® drops and activated charcoal (Sigma Chemical). Six treatments were compared a control; simethicone 15 mg/kg; bisacodyl 25 mg/kg; and bisacodyl 25 mg/kg and simethicone at 5, 10 or 15 mg/kilogram. Dosing preparations of charcoal suspension (10 weight percent) were made freshly each day by adding dry powder to 0.5 percent methylcellulose in water and stirring. Dosing preparations were made each day by adding the appropriate quantity of bisacodyl and/or simethicone drops to the charcoal suspension. All treatments were administered orally, using the dose volume of 10 milliliters per kilogram. Sixty minutes after dosing, the rats were sacrificed and small bowel transit rate was determined by identifying the charcoal marker and measuring its distance from the pylorus.

fecal output = details: 10-100 mg/kg bisacodyl given orally, rat; cited from earlier work
large intestinal transit = details: 50 mg/kg bisacodyl given orally, rat; cited from earlier work

CC(=O)Oc1ccc(C(c2ccc(OC(C)=O)cc2)c2ccccn2)cc1 [Bisacodyl, bisacodyl]
Mean % traveled (small bowel transit; bisacodyl 25 mg/kg oral, rat, charcoal marker, 60 min after dosing): 80.7% | % Increase (small bowel transit; compared to vehicle control, bisacodyl 25 mg/kg oral, rat): 1% | small bowel transit compared with control (small bowel transit; rats treated with simethicone alone or bisacodyl alone): not different from control | fecal output (fecal output): increased fecal output | large intestinal transit (large intestinal transit): significantly stimulated
